Assay results from US11123292B2, “Use of biocompatible microdroplets for the treatment of atherosclerosis, heart disease and stroke” (priority 2014, dated 2021).
Entries after “also recorded” stand apart in the source; their conditions may differ.

Columns and labels:
[1] = single compound; cited from earlier work
[2] = Relative Energy Difference (RED) with cholesterol, calculated from HSP; settings: for Relative Energy Difference (RED) with cholesterol: RED=Ra/Ro, Ro of cholesterol 12.6
Experimental: The extent to which two compounds will dissolve each other can be quantified using the equations developed by Hansen: (Ra)^2=4(δd2−δd1)^2+(δp2−δp1)^2+(δh2−δh1)^2 Eq. (1) RED=Ra/Ro Eq. (2)
Equation 1 calculates the relative magnitude difference of the three Hansen parameters of the two compounds to arrive at Ra. […] Equation 2 allows one to calculate the Relative Energy Difference (RED) of the solvent and the material we are trying to dissolve, by dividing Ra by Ro. Ra was calculated in Equation 1 and measures the magnitude of the difference of the HSP values of the two compounds. The units for the HSP parameters δd, δp, δh are MPa^1/2. […] The Relative Energy Difference (RED) is a dimensionless number which quantifies how well a solvent will dissolve a solute. For an RED>>1 the compounds will not dissolve. For an RED˜1, there will be some dissolution. For an RED<1 there will be a considerable amount of dissolution. Essentially, the smaller RED value, the more solute will dissolve into the solvent, with RED=1 being a threshold where a given solute is starting to be soluble in a given solvent.
Referring now to FIG. 6, this diagram provides a flow chart showing how the biocompatible microdroplet solvent emulsion can be formulated. […] For an example of compounds which might be included in 400, please refer to Tables 1, 2, 3 and 4. However, this list of tables is by no means exhaustive and other compounds could be added to this list. The number of compounds selected can comprise of 1, 2, 3 or as many as are deemed necessary, which is symbolized by the variable n. The HSP parameters of a homogenous mixture of compounds are the weighted average of the HSP parameters of the individual components. […] Ideally, it is possible to formulate a solution such that the resultant RED of the mixture is smaller than the RED of any of the individual components.
The δdm, δpm, δhm calculated using Eq. 9 are the Hansen solubility parameters of the homogenous mixture, where m denotes mixture, and fi depicts the fraction of each of the n components used to fabricate the biocompatible solvent. Equation 10 can be used to calculate the RED of the final mixture, where Ro is the interaction radius of the cholesterol, or other component of arterial plaque one desires to dissolve using the biocompatible microdroplets and […] represents the Hansen solubility constants of cholesterol (dispersion, polar and hydrogen bonding components) or the HSP parameter of the arterial plaque which is being targeted.

[3] = Dissolving cholesterol by microdroplets in whole blood
Source text: (§1) To effectively dissolve arterial plaque in-vivo it is very important that the biocompatible solvent be sufficiently insoluble in blood to allow a small discrete microdroplet to travel through the blood stream, from the injection point, to the plaque which is being treated. If the biocompatible solvent dissolves within the blood, such as an alcohol, the solubility parameters of the resultant mixture will be very nearly identical to that of blood and will not dissolve cholesterol or arterial plaque. Conversely, if a discrete microdroplet of the biocompatible solvent makes contact with the plaque, then the cholesterol molecule in the plaque will be surrounded by multiple molecules of the biocompatible solvent, which have similar solubility parameters as the cholesterol, and the cholesterol will be drawn away from the plaque and into the droplet. […] An organic salt, Esters, an organo-metallic compound could also be used as the main component or an addition to the biocompatible microdroplet solvent means. Essentially any organic molecule which can be administered intravenously with acceptable side effects, is sufficiently insoluble in blood to travel as a discrete microdroplet without being dissolved prior to reaching arterial plaque and which is capable of dissolving cholesterol, cholesterol esters or other materials within the arterial plaque, could potentially be used.
1,8-cineole is classified as a cyclic ether and a monoterpenoid. […] This chemical gives certain fruits such as apples and strawberries their fruity taste, and is used as an additive in bubble gums for this purpose. […] It is used as a fragrance or flavouring agent. […] It is produced natuarally by the organism, and is found in abundance in shark liver oil.

[4] = Water insoluble solvents tested for dissolving cholesterol / arterial plaque; settings: medium not stated
Source text: as §1

[5] = cited from earlier work; for mass fraction of cholesterol which will dissolve in a pure solution of the alcohol: 37° C.

Row | Relative Energy Difference (RED) with cholesterol [2] | Molecule | δd London dispersion HSP parameter [1] | δh hydrogen bonding HSP parameter [1] | δp polarity HSP parameter [1] | other results
1 |  | C=C(C)[C@H]1CC=C(C)CC1 (racemic) [Dipentene] | 16.7 MPa^1/2 | 4 MPa^1/2 | 2.2 MPa^1/2 | 
2 | 0.70 | CC(C)C12CCC(C)(CC1)O2 [1,4-Cineole] | 17.1 MPa^1/2 | 3.7 MPa^1/2 | 3.6 MPa^1/2 | 
3 | 0.77 | CC12CCC(CC1)C(C)(C)O2 [1,8-cineole] | 16.7 MPa^1/2 | 3.4 MPa^1/2 | 4.6 MPa^1/2 | efficacy at dissolving cholesterol, two experiments compared ([3]; up to a 4× difference in blood volume): identical to within measurement error; efficacy of microdroplets at dissolving cholesterol in whole blood [3]: extremely good efficacy; efficacy of microdroplets at dissolving cholesterol in whole blood ([3]; listed as 1,8 cineole): excellent results; also recorded: excellent efficacy
4 |  | Brc1cccc2ccccc12 [1-Bromonaphthalene] |  |  |  | result of solvent testing (dissolving cholesterol) [4]: very promising results
5 |  | CC/C=C\C/C=C\C/C=C\CCCCCCCC(=O)O [Alpha-linolenic acid] |  |  |  | result of solvent testing (dissolving cholesterol) [4]: very promising results
6 | 0.83 | C=CC(C)(C)C(=O)C=C(C)C [Artemisia Ketone] | 15.9 MPa^1/2 | 5.1 MPa^1/2 | 5.8 MPa^1/2 | 
7 | 0.5 | C=C(C)C1CC=C(C)C(=O)C1 (centres unmarked) [Carvone] | 18 MPa^1/2 | 6.4 MPa^1/2 | 5.6 MPa^1/2 | efficacy of microdroplets at dissolving cholesterol in whole blood [3]: excellent results
8 | 0.7 | CC(C)=CCCC(C)=CC=O [Citral] | 16.3 MPa^1/2 | 6.2 MPa^1/2 | 2.3 MPa^1/2 | 
9 | 0.78 | CC(C)=CCCC(C)CC=O (centres unmarked) [Citronellal] | 16.2 MPa^1/2 | 5.2 MPa^1/2 | 5.9 MPa^1/2 | 
10 | 0.72 | CC(C)=CCCC(C)CCO (centres unmarked) [Citronellol] | 16 MPa^1/2 | 10.7 MPa^1/2 | 4.7 MPa^1/2 | 
11 | 1.32 | CCO [Ethanol, reference compound] |  |  |  | mass fraction of cholesterol which will dissolve in a pure solution of the alcohol [5]: 3.3%
12 | 0.53 | C=CCc1ccc(O)c(OC)c1 [Eugenol] | 18.1 MPa^1/2 | 11.6 MPa^1/2 | 7.1 MPa^1/2 | efficacy of microdroplets at dissolving cholesterol in whole blood [3]: excellent results; Ra^2 versus cholesterol ([2]; Eq. 1): 44
13 | 0.65 | CC(C)=CCCC(C)=CCCC(C)=CCO [Farnesol] | 16.4 MPa^1/2 | 7.7 MPa^1/2 | 3.8 MPa^1/2 | 
14 | 0.63 | CC1CCC(C(C)C)C(O)C1 (centres unmarked) [Menthol] | 16.6 MPa^1/2 | 10.6 MPa^1/2 | 4.7 MPa^1/2 | 
15 | 0.79 | CC(C)[C@@H]1CC[C@@H](C)CC1=O [Menthone] | 17 MPa^1/2 | 4.4 MPa^1/2 | 8.1 MPa^1/2 | 
16 | 0.78 | C=CC(=C)CCC=C(C)C [Myrcene] | 16 MPa^1/2 | 5.1 MPa^1/2 | 2.2 MPa^1/2 | 
17 | 0.64 | C=CC(C)(O)CCC=C(C)CCC=C(C)C (centres unmarked) [Nerolidol] | 16.4 MPa^1/2 | 8.7 MPa^1/2 | 2.7 MPa^1/2 | 
18 | 0.62 | C=CC(C)=CCC=C(C)C [Ocimene] | 16.5 MPa^1/2 | 9.1 MPa^1/2 | 2 MPa^1/2 | 
19 | 0.72 | CC1=CC(=O)C(C(C)C)CC1 (centres unmarked) [Piperitone] | 17 MPa^1/2 | 4.5 MPa^1/2 | 6.2 MPa^1/2 | 
20 | 0.52 | CC(C)=CCC/C(C)=C/CC/C(C)=C/CC/C=C(\C)CC/C=C(\C)CCC=C(C)C [Squalene] | 17.6 MPa^1/2 | 6 MPa^1/2 | 3 MPa^1/2 | 
21 | 0.74 | C=C(C)[C@@H]1CCC=C(C)C1 [Sylvestrene] | 16.6 MPa^1/2 | 4.1 MPa^1/2 | 3 MPa^1/2 | 
22 | 0.70 | CC1=CCC(=C(C)C)CC1 [Terpinolene] | 16.9 MPa^1/2 | 4.1 MPa^1/2 | 1.8 MPa^1/2 | 
23 | 0.74 | CC(C)=CCC[C@H](C)[C@@H]1C=CC(C)=CC1 [Zingiberene] | 16.6 MPa^1/2 | 4.1 MPa^1/2 | 1.4 MPa^1/2 | 
24 |  | CC(C)CCC[C@@H](C)[C@H]1CC[C@H]2[C@@H]3CC=C4C[C@@H](O)CC[C@]4(C)[C@H]3CC[C@]12C [cholesterol, Cholesterol] | 20.4 MPa^1/2 | 9.4 MPa^1/2 | 2.8 MPa^1/2 | solubility of cholesterol in pure water ([5]; 30° C.): approximately 95 micrograms per litre; solubility of cholesterol in water ([5]; 30° C.): 0.000095 grams/litre
25 | 0.73 | Bisabolene | 16.7 MPa^1/2 | 4 MPa^1/2 | 2.2 MPa^1/2 | 
26 | 0.76 | Phellandrene | 16.5 MPa^1/2 | 3.9 MPa^1/2 | 1.6 MPa^1/2 | 
27 |  | terpinene |  |  |  | efficacy of microdroplets at dissolving cholesterol in whole blood [3]: excellent results

Row | Molecule | Relative Energy Difference (RED) with cholesterol [2] | δd London dispersion HSP parameter [1] | δh hydrogen bonding HSP parameter [1] | δp polarity HSP parameter [1] | other results
28 | C=CC(C)(CCC=C(C)C)OC(C)=O (centres unmarked) [Linalyl Acetate] | 0.76 | 16 MPa^1/2 | 5.5 MPa^1/2 | 2.8 MPa^1/2 | 
29 | C=C(C)C1CC=C(C=O)CC1 (centres unmarked) [Perillaldehyde] | 0.68 | 17.1 MPa^1/2 | 5.9 MPa^1/2 | 6.9 MPa^1/2 | 
30 | CCCO [Propanol, reference compound] | 1.10 |  |  |  | mass fraction of cholesterol which will dissolve in a pure solution of the alcohol [5]: 11%
31 | CC(C)=C1CC[C@@H](C)CC1=O [Pulegone] | 0.74 | 17.5 MPa^1/2 | 5.5 MPa^1/2 | 8.9 MPa^1/2 | 
32 | O [water, reference compound] | 2.9 |  |  |  | mass fraction of cholesterol which will dissolve in pure water ([5]; pure water): 0.0000095%
